How the values were obtained:
pituitary gland = settings: both in-vitro and in-vivo; cited from earlier work
pituitary = settings: both in-vitro and in-vivo; cited from earlier work
animals = settings: cited from earlier work
testes = settings: both in-vitro and in-vivo; cited from earlier work
adult male humans = experiment: Oral DL-aspartic acid given to adult male humans for 21 days, blood hormone levels; format: in vivo, human; settings: adult males aged twenty to sixty; 10, 20 or 40 grams DL-aspartic acid per day orally in two doses for twenty-one days; versus baseline
Procedure: This example illustrates the effects of administering D-aspartic acid to adult male humans.
A group of nine adult males ranging in age from twenty to sixty is divided into three groups of three men each. The division is made so that each group contains a similar age distribution. Blood samples are taken and the levels of testosterone, growth hormone, and insulin-like growth factor 1 are measured.
The men in the first group orally ingest 10 grams of DL-aspartic acid (which includes 5 grams of D-aspartic acid) daily for twenty-one days. The amount is divided into two equal doses, one of which is taken in the morning and one of which is taken in the evening. The men in the second and third groups follow a similar procedure except the men in the second group orally ingest 20 grams of DL-aspartic acid (which includes 10 grams of D-aspartic acid) per day and the men in the third group orally ingest 40 grams of DL-aspartic acid (which includes 20 grams of D-aspartic acid) per day. Blood samples are then retaken.

finishing pigs = finishing pigs fed with N-methyl-D-aspartate; cited from earlier work

Row | SMILES | growth hormone production from the pituitary gland (pituitary gland) | release of luteinizing hormone from the pituitary (pituitary) | growth hormone levels in the animals (animals) | testosterone levels in the animals (animals) | release of testosterone from the testes (testes) | level of growth hormone in blood (adult male humans) | level of insulin-like growth factor 1 in blood (adult male humans) | level of testosterone in blood (adult male humans) | growth rate (finishing pigs)
1 | N[C@H](CC(=O)O)C(=O)O [D-aspartic acid] | stimulate growth hormone production | stimulate the release | increase | increase | stimulate the release |  |  |  | 
2 | NC(CC(=O)O)C(=O)O (racemic) [DL-aspartic acid] |  |  |  |  |  | significant increases | significant increases | significant increases | 
3 | CN[C@H](CC(=O)O)C(=O)O [N-methyl-D-aspartate] | stimulate growth hormone production |  | increase | increase |  |  |  |  | increase in growth rate

Reference: patent US8202908B1, “D-aspartic acid supplement” (priority 2008, dated 2012)
